# “Also recorded” adds a separate entry of the source.
# Legend:
# mouse T cells [1] = assay: Mouse T cell proliferation assay (anti-CD3/CD28 beads, CellTrace Violet, flow cytometry); assay type: cell-based; details: 1 μM and 5 μM; for survival rate of cells / number of divided T cells: 3 days of stimulation, vs control group; for survival rate of cells: FIG. 1A; for number of divided T cells: FIG. 1B; for proliferation of mouse T cells: P<0.001
# Procedure: Total splenic T cells were isolated by StemCell isolation kit: From female 6-8 weeks old C57BL mice, spleens were harvested, mechanically disrupted, and incubated with a biotinylated antibody cocktail consisting of antibodies to B220, CD11b, CD11c, CD16/32, CD19, CD25, CD105, NK1.1, and TCRγδ (StemCell). After a wash step, cells were incubated with streptavidin-coated magnetic nanoparticles (StemCell). CD3^+ cells were then isolated by applying a magnetic field and collecting the unbound cells.
# The total T cells obtained in step 1 were labeled with the proliferation indicator dye CellTrace Violet according to the manufacturer's protocol, and then seeded in 96-well round bottom cell culture plates at 2×10^5 per well, next the cells were stimulated with anti-CD3 and anti-CD28 antibody coated magnetic beads (Gibco Dynabeads mouse T-activator CD3/CD28 for T-cell expansion and activation) with the beads to cells ratio of 1:4, and then expanded in RPMI-1640 medium up to 4 days, and dilution of CellTrace Violet was then evaluated by flow cytometry.
# Experimental group: different concentrations of ADMA or SDMA were added (ADMA and SDMA dissolved in sterile endotoxin-free water, and the concentration of the storage solution is 0.5 mM); Control group: the same volume of sterile endotoxin-free water was added without ADMA or SDMA.
# human T cells [2] = assay: Human T cell in vitro proliferation assay (anti-CD3/anti-CD28, CellTrace Violet); assay type: cell-based; details: 1 μM; for proliferation of human T cells: P<0.001; for number of divided T cells: human T cells, after 4 days of culture, FIG. 2
# Source text: Human T cell isolation and in vitro proliferation experiments: the use of blood from healthy adult blood donors was approved by the Ethics Committee of the Medical Faculty of Guangzhou Medical University, Guangzhou, China. Peripheral blood mononuclear cells (PBMCs) were isolated using Sepmate PBMC isolation tubes following the manufacturer's instructions (StemCell). CD3^+ human T cells were positively isolated by magnetic cell sorting (Miltenyi Biotec, Bergisch-Gladbach, Germany). Purified T cells were labeled with the proliferation dye CellTrace Violet according to the manufacturer's protocol. Then the cells (1×10^5 cells per well in flat bottom 96 well plate) were stimulated in vitro with immobilized anti-CD3 (5 μg/ml) and anti-CD28 (2 μg/ml) antibody (Biolegend, San Diego, USA), and expanded in RPMI1640 medium up to 5 days. Dilution of CellTrace Violet, indicating proliferation, was then evaluated by flow cytometry.
# mouse B cells = assay: Mouse B cell proliferation assay (splenocytes, IL-4 + anti-IgM, CellTrace Violet); assay type: cell-based; details: 5 μM; for B cells proliferation: P<0.01; for number of live B cells / number of divided B cells: after 4 days; for number of live B cells: FIG. 3A; for number of divided B cells: FIG. 3B
# Procedure: Spleens were harvested, mechanically disrupted, and resuspend in RPMI 1640 complete medium (10% FBS).
# Total splenocytes were then labeled with the proliferation dye CellTrace Violet according to the manufacturer's protocol. Then splenocytes (1×10^5 cells per well in flat bottom 96 well plate) were stimulated with recombinant human IL-4 ([…] and α-mouse IgM (10 μg/ml), and expanded in RPMI1640 medium up to 5 days. Dilution of CellTrace Violet was then evaluated by flow cytometry. (Note; splenocytes contain T cells and monocytes, which will die off during the assay period.)
# Experimental group: ADMA or SDMA (5 μM) was added (ADMA and SDMA dissolved in sterile endotoxin-free water, the storage solution concentration is 0.5 mM). Control group: the same volume of sterile endotoxin-free water without ADMA or SDMA was added.
# mouse T cells [3] = assay: ROS generation in T cells (CellROX Green, flow cytometry); assay type: cell-based
# Procedure: For flow cytometry, T cells were stained with 5 μM CellROX Green Reagent (Life Technologies) for 30 min at 37° C. in the presence or absence of ADMA or SDMA (5 μM), and then washed with 1×PBS once. MitoQ (100 nM) was added with ADMA and SDMA. Cells were resuspended in 300 μl of PBS before the analysis by flow cytometry.
# Experimental Groups: ADMA alone, SDMA alone, or ADMA/SDMA (ADMA/SDMA represents the mixture of ADMA and SDMA herein) was used at the final concentration of 1 μM, MitoQ was used either at 10 nM or 100 nM.
# activated human T cells = assay: Proliferation of activated human T cells (compound added 24 h after anti-CD3/CD28 stimulation); assay type: cell-based; details: ADMA 1 μM; for inhibitory effect compared with other substances / number of live cells / T cell proliferation: PD404182 100 nM; for inhibitory effect compared with other substances / number of live cells: rapamycin 50 nM; for number of live cells: 24 h and 48 h after addition, vs control, FIG. 5A, 5B; for T cell proliferation: activated human T cells
# Procedure: Human T cells were stimulated with anti-human CD3 and CD28 for 24 hours. […] Flow cytometry was used to analyze the number of live cells and the number of divided cells. The results are shown in FIG. 5A and FIG. 5B, respectively.
# mouse splenic T cells = assay: DMGV-induced ROS in mouse T cells (flow cytometry); assay type: cell-based; details: 1 h, FIG. 6A
# Procedure: (§1) DMGV was synthesized as described in the literature (for specific preparation procedures, refer to J. Mass Spectrom. 2012, 47, 1594; Anal. Biochem. 2011, 419, 234). Mouse and human T cells were treated with none, or DMGV (10 μM), or DMGV+MitoQ (100 nM) for 1 h and ROS was measured by flow cytometry. The results are shown in FIG. 6A and FIG. 6B, respectively.
# T cells = assay: Effect of MitoQ on T cell proliferation in vitro with ADMA/SDMA; assay type: cell-based, mouse; details: MitoQ 100 nM + ADMA/SDMA 1 μM vs ADMA/SDMA group; 3 days; FIG. 4D
# Procedure: After incubating MitoQ and ADMA/SDMA together with T cells up to 3 days, flow cytometry was used to investigate the effect on the T cells proliferation in vitro.
# Experimental groups: Control, ADMA/SDMA (1 μM), and ADMA/SDMA (1 μM)+MitoQ (100 nM).
# human peripheral T cells = assay: DMGV-induced ROS in human T cells (flow cytometry); assay type: cell-based; details: 1 h, FIG. 6B
# Procedure: as §1
# human T cells [4] = assay: DMGV human T cell proliferation (anti-CD3/anti-CD28 activation); assay type: cell-based; details: 3 days, FIG. 6D
# Procedure: (§2) Mouse or human T cells were activated by anti-CD3 and anti-28 antibodies with none, DMGV (10 μM), or DMGV+MitoQ (100 nM) for 3 days and proliferation was measured by flow cytometry. The results are shown in FIG. 6C and FIG. 6D, respectively.
# mouse T cells [5] = assay: DMGV mouse T cell proliferation (anti-CD3/anti-CD28 activation); assay type: cell-based; details: 3 days, FIG. 6C
# Procedure: as §2
# SKG mice arthritis = assay: Arthritis in beta-glucan injected SKG mice; assay type: in vivo; details: SKG mice with score 8 or above; DMGV 750 μg/mouse in the peritoneum up to 50 days; N=7, P=0.0006 (2-way ANOVA); FIG. 7
# Procedure: SKG mice (purchased from CLEA Japan, Inc.) develop arthritis because a mutation in the ZAP-70 gene, which causes activation of T cells. SKG mice were injected with beta-glucan (30 mg/mouse, Sigma) to accelerate development of arthritis and the arthritis score was calculated as described in the literature (for specific preparation procedures, refer to Yoshitomi, H, J. Exp Med. 2005). Mice that reached the arthritis score of 8 or above in less than 2 months were selected and treated with DMGV (750 μg/mouse) twice a week up to 50 days.
# [6] = ADMA or SDMA alone vs none, 2 hours, FIG. 4A
compound,measurement,setting,value
"CN(C)C(N)=NCCC[C@H](N)C(=O)O [ADMA, asymmetric dimethylarginine]",survival rate of cells,mouse T cells [1],reduced the survival rate of cells
same,number of divided T cells,mouse T cells [1],resulted in the reduction of the number of divided T cells
same,proliferation of mouse T cells,mouse T cells [1],significantly inhibit the proliferation of mouse T cells
same,proliferation of human T cells,human T cells [2],inhibit proliferation of human T cells significantly
same,number of divided T cells,human T cells [2],reduced the number of divided T cells
same,B cells proliferation,mouse B cells,significantly inhibit B cells proliferation
same,number of live B cells,mouse B cells,reduced the number of live
same,number of divided B cells,mouse B cells,reduced the number of live (FIG. 3A) and divided B cells
same,ROS,mouse T cells [3]; [6],ROS was significantly induced
same,inhibitory effect compared with other substances,activated human T cells,better than PD404182; also recorded: superior to the mTOR inhibitor rapamycin
same,number of live cells,activated human T cells,the number of live cells declined
same,T cell proliferation,activated human T cells,can inhibit T cell proliferation
same,number of divided cells of T cells,activated human T cells; vs control or rapamycin group,decreased significantly
"COC1=C(OC)C(=O)C(CCCCCCCCCC[P+](c2ccccc2)(c2ccccc2)c2ccccc2)=C(C)C1=O [MitoQ, reference compound]",effect on DMGV-induced ROS,mouse splenic T cells; DMGV 10 μM plus MitoQ 100 nM,inhibited by MitoQ
same,effect on inhibition of T cells proliferation by ADMA/SDMA,T cells,significantly prevent the inhibitory effect of ADMA and SDMA on T cells proliferation
same,effect on DMGV-induced ROS,human peripheral T cells; DMGV 10 μM plus MitoQ 100 nM,inhibited by MitoQ
same,ROS,"mouse T cells [3]; MitoQ (100 nM) with ADMA/SDMA vs ADMA/SDMA alone, FIG. 4B",decreased significantly
same,effect on inhibition of proliferation by DMGV,human T cells [4]; DMGV 10 μM plus MitoQ 100 nM,inhibited by MitoQ
"N=C1Sc2ccccc2C2=NCCCN12 [PD404182, reference compound]",inhibitory effect compared with other substances,activated human T cells,superior to the mTOR inhibitor rapamycin
same,number of live cells,activated human T cells,the number of live cells declined
same,T cell proliferation,activated human T cells,can inhibit T cell proliferation
"CN=C(NC)NCCC[C@H](N)C(=O)O [SDMA, symmetric dimethylarginine]",survival rate of cells,mouse T cells [1],reduced the survival rate of cells
same,number of divided T cells,mouse T cells [1],resulted in the reduction of the number of divided T cells
same,proliferation of mouse T cells,mouse T cells [1],significantly inhibit the proliferation of mouse T cells
same,proliferation of human T cells,human T cells [2],inhibit proliferation of human T cells significantly
same,number of divided T cells,human T cells [2],reduced the number of divided T cells
same,B cells proliferation,mouse B cells,significantly inhibit B cells proliferation
same,number of live B cells,mouse B cells,reduced the number of live
same,number of divided B cells,mouse B cells,reduced the number of live (FIG. 3A) and divided B cells
same,ROS,mouse T cells [3]; [6],ROS was significantly induced
dimethylguanidino valeric acid [DMGV],proliferation,mouse T cells [5],inhibited proliferation
same,ROS,mouse splenic T cells; DMGV 10 μM,induces ROS
same,arthritis score,SKG mice arthritis,significantly decreased the arthritis score in all mice
same,ROS,human peripheral T cells; DMGV 10 μM,induces ROS
same,proliferation,human T cells [4]; DMGV 10 μM,inhibited proliferation
